Like-named read-outs stand apart in the source and are kept apart here.

In general, IC50 refers to the concentration that inhibits the measured activity by half. Usually inhibition stands for the change of the read-out against control, counted positive when it falls.

For assay [1], the target named is T1, human N-type Ca channel (Homo sapiens, UniProt Q00975). As to the kind of experiment: Calcium influx assay (FDSS), KCl depolarization, Fluo8 dye. The conditions noted are these: HEK 293 cells expressing human N-type Ca channel; 100 mM KCl; read-out: N Type IC50 Data FDSS. On the set-up: host or cells: HEK 293. The assay is classed as cell-based. As for the experimental part: All cell culture reagents were procured from HyClone and other reagents were from Fisher. Recombinant HEK 293 cells expressing human N-type Ca channel (Millipore) were maintained in DMEM F12 containing 10% FBS and selection antibiotics at 37 °C in 5% CO2.
T1 sequence (Q00975 whole entry): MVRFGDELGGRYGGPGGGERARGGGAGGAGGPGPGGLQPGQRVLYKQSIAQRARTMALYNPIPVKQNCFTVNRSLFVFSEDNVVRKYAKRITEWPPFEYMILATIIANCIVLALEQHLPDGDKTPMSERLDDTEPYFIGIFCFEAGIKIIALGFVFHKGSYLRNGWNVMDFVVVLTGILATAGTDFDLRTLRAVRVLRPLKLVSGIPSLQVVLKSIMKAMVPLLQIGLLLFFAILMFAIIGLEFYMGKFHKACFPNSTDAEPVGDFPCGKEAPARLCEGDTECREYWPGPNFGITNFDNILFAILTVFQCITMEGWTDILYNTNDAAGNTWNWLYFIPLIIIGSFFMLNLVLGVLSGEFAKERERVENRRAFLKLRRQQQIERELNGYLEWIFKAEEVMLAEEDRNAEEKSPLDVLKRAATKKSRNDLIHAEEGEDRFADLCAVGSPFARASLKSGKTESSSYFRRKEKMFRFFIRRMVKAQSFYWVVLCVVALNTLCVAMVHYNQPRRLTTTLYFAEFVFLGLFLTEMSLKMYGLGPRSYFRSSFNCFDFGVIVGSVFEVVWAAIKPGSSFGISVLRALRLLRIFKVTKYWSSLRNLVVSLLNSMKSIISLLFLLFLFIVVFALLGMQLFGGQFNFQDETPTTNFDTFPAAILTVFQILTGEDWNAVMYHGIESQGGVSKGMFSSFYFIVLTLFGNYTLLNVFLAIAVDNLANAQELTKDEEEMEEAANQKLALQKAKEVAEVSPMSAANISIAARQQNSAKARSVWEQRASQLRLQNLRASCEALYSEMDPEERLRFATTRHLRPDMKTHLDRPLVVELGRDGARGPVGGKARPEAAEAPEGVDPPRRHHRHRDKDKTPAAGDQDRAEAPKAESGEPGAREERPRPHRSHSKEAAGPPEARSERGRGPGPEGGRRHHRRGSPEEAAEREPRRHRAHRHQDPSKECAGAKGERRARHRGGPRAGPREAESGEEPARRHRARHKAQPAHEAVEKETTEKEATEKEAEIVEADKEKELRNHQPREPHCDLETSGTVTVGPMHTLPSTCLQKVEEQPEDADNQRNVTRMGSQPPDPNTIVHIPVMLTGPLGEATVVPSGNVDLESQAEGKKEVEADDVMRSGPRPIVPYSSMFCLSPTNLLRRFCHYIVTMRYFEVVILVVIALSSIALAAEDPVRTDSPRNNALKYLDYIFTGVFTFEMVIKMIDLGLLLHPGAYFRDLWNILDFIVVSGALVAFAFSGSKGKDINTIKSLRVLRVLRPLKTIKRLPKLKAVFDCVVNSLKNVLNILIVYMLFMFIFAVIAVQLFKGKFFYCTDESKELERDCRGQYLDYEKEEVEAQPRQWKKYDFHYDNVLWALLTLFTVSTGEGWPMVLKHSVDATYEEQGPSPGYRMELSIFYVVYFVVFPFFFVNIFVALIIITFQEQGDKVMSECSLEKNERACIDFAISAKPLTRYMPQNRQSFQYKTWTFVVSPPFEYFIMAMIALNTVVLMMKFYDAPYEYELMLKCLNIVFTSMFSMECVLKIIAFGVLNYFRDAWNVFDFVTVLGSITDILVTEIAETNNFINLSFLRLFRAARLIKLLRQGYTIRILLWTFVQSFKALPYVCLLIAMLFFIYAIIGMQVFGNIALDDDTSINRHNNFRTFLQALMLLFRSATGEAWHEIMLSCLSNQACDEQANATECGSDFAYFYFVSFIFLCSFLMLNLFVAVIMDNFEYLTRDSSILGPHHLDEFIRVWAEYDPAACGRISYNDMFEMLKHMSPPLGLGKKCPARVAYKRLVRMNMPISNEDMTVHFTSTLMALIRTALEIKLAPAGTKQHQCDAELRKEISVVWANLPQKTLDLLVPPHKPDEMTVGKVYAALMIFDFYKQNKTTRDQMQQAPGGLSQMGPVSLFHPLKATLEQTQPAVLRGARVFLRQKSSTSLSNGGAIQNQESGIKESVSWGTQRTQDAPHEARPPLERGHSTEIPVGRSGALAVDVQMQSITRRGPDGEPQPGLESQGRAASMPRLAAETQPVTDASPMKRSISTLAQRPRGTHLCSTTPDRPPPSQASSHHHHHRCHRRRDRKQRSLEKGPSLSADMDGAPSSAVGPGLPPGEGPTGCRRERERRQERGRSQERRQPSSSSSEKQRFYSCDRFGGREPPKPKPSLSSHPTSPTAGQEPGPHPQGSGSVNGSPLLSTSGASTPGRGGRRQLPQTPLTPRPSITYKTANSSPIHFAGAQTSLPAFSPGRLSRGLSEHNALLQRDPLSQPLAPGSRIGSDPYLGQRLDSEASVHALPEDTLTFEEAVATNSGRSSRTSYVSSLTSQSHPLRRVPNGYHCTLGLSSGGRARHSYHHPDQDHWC
T1 sequence (P54284 whole entry partner): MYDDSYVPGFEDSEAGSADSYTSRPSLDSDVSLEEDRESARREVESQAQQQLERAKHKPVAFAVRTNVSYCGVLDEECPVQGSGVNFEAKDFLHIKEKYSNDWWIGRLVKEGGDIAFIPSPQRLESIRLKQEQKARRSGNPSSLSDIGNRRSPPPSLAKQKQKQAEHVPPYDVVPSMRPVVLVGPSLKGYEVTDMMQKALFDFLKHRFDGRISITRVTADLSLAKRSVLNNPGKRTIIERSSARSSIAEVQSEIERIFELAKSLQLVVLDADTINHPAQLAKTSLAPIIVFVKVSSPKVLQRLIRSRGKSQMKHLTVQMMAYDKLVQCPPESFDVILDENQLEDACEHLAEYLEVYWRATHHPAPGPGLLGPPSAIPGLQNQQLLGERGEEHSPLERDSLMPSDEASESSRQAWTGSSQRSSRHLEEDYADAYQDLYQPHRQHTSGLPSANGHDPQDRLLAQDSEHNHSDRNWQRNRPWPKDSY
T1 sequence (P54289 25-956 partner limits assumed): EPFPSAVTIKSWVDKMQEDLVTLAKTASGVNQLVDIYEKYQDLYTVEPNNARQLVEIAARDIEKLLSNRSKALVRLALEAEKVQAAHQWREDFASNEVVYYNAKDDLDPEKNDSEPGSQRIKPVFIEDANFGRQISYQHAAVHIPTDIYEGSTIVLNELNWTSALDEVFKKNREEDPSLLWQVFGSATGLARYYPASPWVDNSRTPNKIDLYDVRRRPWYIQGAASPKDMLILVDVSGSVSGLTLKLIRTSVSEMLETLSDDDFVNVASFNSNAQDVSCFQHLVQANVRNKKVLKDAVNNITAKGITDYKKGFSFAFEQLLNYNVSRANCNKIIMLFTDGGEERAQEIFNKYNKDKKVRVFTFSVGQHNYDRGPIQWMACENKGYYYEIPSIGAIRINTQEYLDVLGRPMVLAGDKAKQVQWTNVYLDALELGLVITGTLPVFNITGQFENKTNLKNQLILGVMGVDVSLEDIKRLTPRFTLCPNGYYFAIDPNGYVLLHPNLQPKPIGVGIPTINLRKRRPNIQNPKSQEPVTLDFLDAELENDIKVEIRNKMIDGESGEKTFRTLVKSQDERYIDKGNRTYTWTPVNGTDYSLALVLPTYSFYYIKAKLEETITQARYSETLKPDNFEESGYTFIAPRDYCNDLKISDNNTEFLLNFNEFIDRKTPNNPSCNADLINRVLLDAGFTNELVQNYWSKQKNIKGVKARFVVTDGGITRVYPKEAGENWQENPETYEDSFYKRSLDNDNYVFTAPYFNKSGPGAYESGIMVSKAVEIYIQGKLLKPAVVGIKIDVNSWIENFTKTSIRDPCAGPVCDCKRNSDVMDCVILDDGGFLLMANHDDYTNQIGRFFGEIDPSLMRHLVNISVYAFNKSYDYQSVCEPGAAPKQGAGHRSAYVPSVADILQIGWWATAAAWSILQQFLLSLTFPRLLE
T1 sequence (P54289 957-1103 partner limits assumed): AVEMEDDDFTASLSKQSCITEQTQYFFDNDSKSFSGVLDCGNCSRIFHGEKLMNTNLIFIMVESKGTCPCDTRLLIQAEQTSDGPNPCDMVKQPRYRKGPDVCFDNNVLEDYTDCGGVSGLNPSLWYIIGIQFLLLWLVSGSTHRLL
Cells were incubated at 30 °C in 5% CO2 overnight. The medium was removed and cells were loaded with Fluo8 dye (AAT Bioquest) at 37 °C and 30 °C, 30 min each in darkness. Cells were washed four times with wash buffer (16 mM Herep pH 7.2, 2 mM CaCl2, 1 mM MgCl2, 5 mM glucose, 140 mM choline chloride and 2 mM KCl) leaving 15 µL buffer after the last wash. Compounds of Formula (I), serially diluted, were added to the cell plate. The plates were incubated in darkness for 15 min. Cells were depolarized with 100 mM KCl and Ca influx was measured.

The target of assay [2] is T1, human N-type Ca channel. Put plainly: Electrophysiological response, QPatch (depolarization -80 mV to +20 mV).
Setting [3] is: N Type IC50 Data Qpatch Pulse=1, Pulse=1, concentration range 0.3-10 µM.
Setting [4] is: N Type IC50 Data Qpatch Pulse=15, Pulse=15, concentration range 0.3-10 µM.
Where [5] appears, read: N Type IC50 Data Qpatch Pulse=1, Pulse=1, concentration range 0.01-1 µM.
[6] abbreviates: N Type IC50 Data Qpatch Pulse=15, Pulse=15, concentration range 0.01-1 µM.
The mark [7] stands for this setting: read-out: N Type IC50 Data Qpatch Pulse=1, Pulse=1, concentration range 0.01-1 µM.
[8] abbreviates: read-out: N Type IC50 Data Qpatch Pulse=15, Pulse=15, concentration range 0.01-1 µM.
The mark [9] stands for this setting: Pulse=1, concentration range 0.01-0.3 µM.
The mark [10] stands for this setting: Pulse=15, concentration range 0.01-0.3 µM.
Where [11] appears, read: read-out: Qpatch Pulse=1 (percent inhibition).

Regarding `COc1ccccc1-c1nc(C2CC(C)(C)OC(C)(C)C2)cn1-c1ccc(F)c(F)c1` [Compound 42, 1-(31,4-difluorophenyl)-2-(2-methoxyphenyl)-4-(2,2,6,6-tetramethyltetrahydro-2H-pyran-4-yl)-1H-imidazole], the IC50 in assay [1] came to 194 nM; in assay [2] (setting [3]) it was 2600 nM; in assay [2] (setting [4]), 1080 nM.
Take `COc1ncccc1-c1nc(C2CC(C)(C)OC(C)(C)C2)c(Cl)n1-c1ccc(F)cc1` [Compound 92, 3-(5-chloro-1-(4-fluorophenyl)-4-(2,2,6,6-tetramethyltetrahydro-2H-pyran-4-yl)-1H-imidazol-2-yl)-2-methoxypyridine]: the IC50 in assay [1] turned out to be 41 nM; in assay [2] (setting [5]), 253 nM; in assay [2] (setting [6]), 269 nM.
`COc1ccncc1-c1nc(C2CC(C)(C)OC(C)(C)C2)cn1-c1ccc(Cl)cc1` [Compound 68, 3-(1-(4-chlorophenyl)-4-(2,2,6,6-tetramethyltetrahydro-2H-pyran-4-yl)-1H-imidazol-2-yl)-4-methoxypyridine]: the IC50 in assay [1] is 109 nM; in assay [2] (setting [4]), 4600 nM.
On to `CC1(C)CC(c2cn(-c3ccc(C#N)cc3)c(C3CC3)n2)CC(C)(C)O1` [Compound 57, 4-(2-cyclopropyl-4-(2,2,6,6-tetramethyltetrahydro-2H-pyran-4-yl)-1H-imidazol-1-yl)benzonitrile], for which the results for the 50% inhibitory concentration (IC50) in assay [1], in assay [2] (setting [7]) and in assay [2] (setting [8]) were 10000 nM, > 1000 nM and > 1000 nM, respectively.
As for `COc1cnccc1-c1nc(C2(O)CC(C)(C)OC(C)(C)C2)cn1-c1ccc(Cl)cc1` [Compound 120, 4-(1-(4-chlorophenyl)-2-(3-methoxypyridin-4-yl)-1H-imidazol-4-yl)-2,2,6,6-tetramethyltetrahydro-2H-pyran-4-ol], the concentration for half-maximal inhibition (IC50) in assay [1] worked out at 108 nM; in assay [2] (setting [3]), 1600 nM; in assay [2] (setting [4]) it was 9100 nM.
For the compound `COc1ccccc1-c1nc(C2CC(C)(C)OC(C)(C)C2)cn1-c1ccc(C)c(C#N)c1` [Compound 22, 5-(2-(2-methoxyphenyl)-4-(2,2,6,6-tetramethyltetrahydro-2H-pyran-4-yl)-1H-imidazol-1-yl)-2-methylbenzonitrile], the half-inhibitory concentration (IC50) was determined as 75 nM in assay [1], 590 nM in assay [2] (setting [5]) and 847 nM in assay [2] (setting [6]).
In the case of `COc1ncccc1-c1nc(C2CC(C)(C)OC(C)(C)C2)cn1-c1ccc(F)c(Cl)c1` [Compound 46, 3-(1-(3-chloro-4-fluorophenyl)-4-(2,2,6,6-tetramethyltetrahydro-2H-pyran-4-yl)-1H-imidazol-2-yl)-2-methoxypyridine], the figures for the IC50 in assay [1] and in assay [2] (setting [4]) were 255 nM and 2500 nM, respectively.
On to `COc1nccnc1-c1nc(C2CC(C)(C)OC(C)(C)C2)cn1-c1ccc(C#N)cc1` [Compound 87, 4-(2-(3-methoxypyrazin-2-yl)-4-(2,2,6,6-tetramethyltetrahydro-2H-pyran-4-yl)-1H-imidazol-1-yl)benzonitrile], for which the half-inhibitory concentration (IC50) in assay [1] stood at 6200 nM. Further, the “N Type IC50 Data Qpatch Pulse=1” value in assay [2] (setting [9]) was “poor fit(0.01-0.3 µM)”. In addition, in assay [2] (setting [10]), the “N Type IC50 Data Qpatch Pulse=15” value was “poor fit(0.01-0.3 µM)”.
Turning to `COc1ccccc1-c1nc(C2(O)CC(C)(C)OC(C)(C)C2)cn1-c1ccc(F)c(C#N)c1` [Compound 117, 2-fluoro-5-(4-(4-hydroxy-2,2,6,6-tetramethyltetrahydro-2H-pyran-4-yl)-2-(2-methoxyphenyl)-1H-imidazol-1-yl)benzonitrile], the IC50 in assay [1] is 1440 nM. Besides, the inhibition at 10 µM in assay [2] (setting [11]) was 40%; in assay [2] (read-out: Qpatch Pulse=15 (percent inhibition)), 25%.
With `COc1ccccc1-c1nc(C2CC(C)(C)OC(C)(C)C2)cn1S(=O)(=O)C(F)(F)F` [Compound 94, 2-(2-methoxyphenyl)-4-(2,2,6,6-tetramethyltetrahydro-2H-pyran-4-yl)1((trifluoromethyl)sulfonyl)-1H-imidazole], the values for the half-inhibitory concentration (IC50) in assay [1], in assay [2] (setting [7]) and in assay [2] (setting [8]) were 551 nM, > 1000 nM and > 1000 nM, respectively.
As to `COc1ncccc1-c1nc(C2CC(C)(C)OC(C)(C)C2)cn1Cc1ccccc1Cl` [Compound 27, 3-(1-(2-chlorobenzyl)-4-(2,2,6,6-tetramethyltetrahydro-2H-pyran-4-yl)-1H-imidazol-2-yl)-2-methoxypyridine], the IC50 was determined as 6400 nM in assay [1] and 1900 nM in assay [2] (N Type IC50 Data Qpatch Pulse=15, Pulse=15, concentration range 0.01-0.3 µM). Further, the “N Type IC50 Data Qpatch Pulse=1” value in assay [2] (setting [9]) is reported as “poor fit(0.01-0.3 µM)”.
Consider `CCOc1ncccc1-c1nc(C2CC(C)(C)OC(C)(C)C2)cn1-c1ccc(Cl)cc1` [Compound 51, 3-(1-(4-chlorophenyl)-4-(2,2,6,6-tetramethyltetrahydro-2H-pyran-4-yl)-1H-imidazol-2-yl)-2-ethoxypyridine], for which the IC50 in assay [1] came to 29 nM; in assay [2] (setting [5]), 179 nM; in assay [2] (setting [6]) it was 701 nM.
In the case of `COc1ccccc1-c1nc(C2CC(C)(C)OC(C)(C)C2)cn1S(=O)(=O)C1CC1` [Compound 95, 1-(cyclopropylsulfonyl)-2-(2-methoxyphenyl)-4-(2,2,6,6-tetramethyltetrahydro-2H-pyran-4-yl)-1H-imidazole], the IC50 in assay [1] was 10000 nM; in assay [2] (setting [7]), > 1000 nM; in assay [2] (setting [8]), > 1000 nM.
Turning to `COc1ncccc1-c1nc(C2CC(C)(C)OC(C)(C)C2)cn1-c1ccc(F)c(F)c1F` [Compound 16, 2-methoxy-3-(4-(2,2,6,6-tetramethyltetrahydro-2H-pyran-4-yl)-1-(2,3,4-trifluorophenyl)-1H-imidazol-2-yl)pyridine], the half-maximal inhibitory concentration (IC50) in assay [1] was 359 nM. In addition, the “N Type IC50 Data Qpatch Pulse=1” value in assay [2] (setting [9]) was “poor fit(0.01-0.3 µM)”. Besides, the “N Type IC50 Data Qpatch Pulse=15” value in assay [2] (setting [10]) is reported as “poor fit(0.01-0.3µM)”.
As to `COc1ccccc1-c1nc(C2CC(C)(C)OC(C)(C)C2)cn1-c1ccc(C#N)c(F)c1` [Compound 81, 2-fluoro-4-(2-(2-methoxyphenyl)-4-(2,2,6,6-tetramethyltetrahydro-2H-pyran-4-yl)-1H-imidazol-1-yl) benzonitrile], the IC50 in assay [1] was determined as 201 nM; in assay [2] (setting [3]) it was 6700 nM; in assay [2] (setting [4]), 2800 nM.
As for `CC1(C)CC(c2cn(-c3ccc(C(F)(F)F)nc3)c(CC3CC3)n2)CC(C)(C)O1` [Compound 59, 5-(2-(cyclopropylmethyl)-4-(2,2,6,6-tetramethyltetrahydro-2H-pyran-4-yl)-1H-imidazol-1-yl)-2-(trifluoromethyl)pyridine], the IC50 in assay [1] is 4400 nM. In assay [2] (setting [9]), the “N Type IC50 Data Qpatch Pulse=1” value is reported as “poor fit(0.01-0.3 µM)”. Also, the “N Type IC50 Data Qpatch Pulse=15” value in assay [2] (setting [10]) is recorded as “poor fit(0.01-0.3 µM)”.
As for `COc1ncccc1-c1nc(C2CC(C)(C)OC(C)(C)C2)cn1-c1ccc(F)c(C#N)c1` [Compound 79, 2-fluoro-5-(2-(2-methoxypyridin-3-yl)-4-(2,2,6,6-tetramethyltetrahydro-2H-pyran-4-yl)-1H-imidazol-1-yl)benzonitrile], the figures for the IC50 in assay [1] and in assay [2] (setting [4]) were 1330 nM and 3600 nM, respectively. In assay [2] (setting [11]), the inhibition at 10 µM turned out to be 29%.
On to `COc1ccccc1-c1nc(C2CC(C)(C)OC(C)(C)C2)cn1S(=O)(=O)c1ccc(Cl)cc1` [Compound 97, 1-((4-chlorophenyl)sulfonyl)-2-(2-methoxyphenyl)-4-(2,2,6,6-tetramethyltetrahydro-2H-pyran-4-yl)-1H-imidazole], for which the figures for the IC50 in assay [1] and in assay [2] (setting [4]) were 515 nM and 3080 nM, respectively.
Turning to `COc1cnccc1-c1nc(C2CC(C)(C)OC(C)(C)C2)cn1-c1ccc(Cl)c(F)c1` [Compound 13, 4-(1-(4-chloro-3-fluorophenyl)-4-(2,2,6,6-tetramethyltetrahydro-2H-pyran-4-yl)-1H-imidazol-2-yl)-3-methoxypyridine], the results for the IC50 in assay [1], in assay [2] (setting [5]) and in assay [2] (setting [8]) were 200 nM, > 1000 nM and > 1000 nM, respectively.

The values are drawn from patent publication EP3033337B1, “SUBSTITUTED IMIDAZOLES AS N-TYPE CALCIUM CHANNEL BLOCKERS” (Janssen Pharmaceutica NV, priority 2013, dated 2015).
